Source: US4482559A, “4-Phenyl-4,5,6,7-tetrahydro-thieno [2,3-c]pyridines, compositions and use” (Boehringer Ingelheim KG, priority 1982, dated 1984)
Like-named read-outs stand apart in the source and are kept apart here.

Columns and labels:
[1] = LD50 in the mouse by oral route; details: in vivo
[2] = test system: hypothermic effect caused by reserpine; experiment: reserpine antagonism (reversal of the hypothermic effect caused by reserpine) in mice; type: in vivo; details: Mus musculus, oral, reserpine 2 mg/kg i.p. 17 hours before
Method: The test used for determining antidepressant properties was reserpine antagonism, namely the reversal of the hypothermic effect caused by reserpine. This test was carried out on mice, using five animals per dose. 17 hours after the intraperitoneal administration of 2 mg/kg of reserpine, the peripheral body temperature was measured at an ambient temperature of 19° C. Then, the test compound was administered by the oral route, and the body temperature was measured after 1, 3, 5 and 7 hours had elapsed. A median effective dose (ED50) was determined for each period of measurement. This is the dose at which the body temperature of the animals treated with reserpine is brought closer to the normal temperature of the untreated control animals by 50%.

[3] = 1 hour, read-out: Reserpine antagonism, median effective dose (ED50) after 1 hr
[4] = 3 hours, read-out: Reserpine antagonism, median effective dose (ED50) after 3 hrs
[5] = 5 hours, read-out: Reserpine antagonism, median effective dose (ED50) after 5 hrs
[6] = 7 hours, read-out: Reserpine antagonism, median effective dose (ED50) after 7 hrs

Row | SMILES | LD50 [1] | ED50 [2, 3] | ED50 [2, 4] | ED50 [2, 5] | ED50 [2, 6]
1 | Cc1ccc(C2CN(C)Cc3sc(CO)cc32)cc1 (stereo not drawn) [2-(Hydroxy-methyl)-6-methyl-4-p-tolyl-4,5,6,7-tetrahydrothieno[2,3-c]pyridine] | ~740 mg/kg | 2.5 mg/kg | 0.24 mg/kg | 2.5 mg/kg | > 10 mg/kg
2 | CN1Cc2sc(CN3CCOCC3)cc2C(c2ccc(Br)cc2)C1 (stereo not drawn) [2-(Morpholino-methyl)-4-(p-bromo-phenyl)-6-methyl-4,5,6,7-tetrahydro-thieno[2,3-c]pyridine] | > 640 mg/kg | 22 mg/kg | 1.7 mg/kg | 1.7 mg/kg | 10 mg/kg
3 | CN1Cc2sc(CN3CCOCC3)cc2C(c2ccc(Cl)cc2)C1 (stereo not drawn) [2-(Morpholino-methyl)-4-(p-chloro-phenyl)-6-methyl-4,5,6,7-tetrahydro-thieno[2,3-c]pyridine] | > 640 mg/kg | > 40 mg/kg | 2.6 mg/kg | 12 mg/kg | 2.5 mg/kg
